Test results published in the supplement of paper PMC11061612.

Columns and labels:
AZD0156 = compound: CN(C)CCCOc1ccc(-c2ccc3ncc4c(c3c2)n(C2CCOCC2)c(=O)n4C)cn1 [AZD0156]; conditions: max 3 µM
Outline: (§1)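 Cancer cell lines were dosed for 72 hours (final DMSO typically 0.2%) after 24 hours at 37°C and 5% CO2 in 1536-well plates containing 7.5 μl DMEM/F12 or RPMI with 10% FBS. Viability came from CellTiter-Glo 2.0 luminescence, scaled between blank-well and DMSO-well means, and dose responses were fitted to a two-parameter logistic curve with a non-linear mixed effects model. The single-agent IC50 was obtained from this fit.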

Lapatinib = compound: CS(=O)(=O)CCNCc1ccc(-c2ccc3ncnc(Nc4ccc(OCc5cccc(F)c5)c(Cl)c4)c3c2)o1 [Lapatinib]; conditions: max 10 µM
Outline: as §1

Savolitinib = compound: C[C@@H](c1ccc2nccn2c1)n1nnc2ncc(-c3cnn(C)c3)nc21 [Savolitinib]; conditions: max 1 µM
Outline: as §1

Crizotinib = compound: C[C@@H](Oc1cc(-c2cnn(C3CCNCC3)c2)cnc1N)c1c(Cl)ccc(F)c1Cl [Crizotinib]; conditions: max 10 µM
Outline: as §1

Palbociclib = compound: CC(=O)c1c(C)c2cnc(Nc3ccc(N4CCNCC4)cn3)nc2n(C2CCCC2)c1=O [Palbociclib]; conditions: max 10 µM
Outline: as §1

Prexasertib = compound: COc1cccc(OCCCN)c1-c1cc(Nc2cnc(C#N)cn2)n[nH]1 [Prexasertib]; conditions: max 1 µM
Outline: as §1

Capivasertib = compound: C1CN(CCC1(C(=O)N[C@@H](CCO)C2=CC=C(C=C2)Cl)N)C3=NC=NC4=C3C=CN4 [Capivasertib]
Outline: as §1

Taselisib = compound: Cc1nc(-c2cn3c(n2)-c2ccc(-c4cnn(C(C)(C)C(N)=O)c4)cc2OCC3)n(C(C)C)n1 [Taselisib]; conditions: max 10 µM
Outline: as §1

AZD5991 = compound: Cc1c2c(nn1C)CSCc1cc(n(C)n1)CSc1cc(c3ccccc3c1)OCCCc1c(C(=O)O)n(C)c3c-2c(Cl)ccc13 [AZD5991]; conditions: max 1 µM
Outline: as §1

AZD8186 = compound: C[C@@H](Nc1cc(F)cc(F)c1)c1cc(C(=O)N(C)C)cc2c(=O)cc(N3CCOCC3)oc12 [AZD8186]; conditions: max 3 µM
Outline: as §1

Trametinib = compound: CC(=O)Nc1cccc(-n2c(=O)n(C3CC3)c(=O)c3c(Nc4ccc(I)cc4F)n(C)c(=O)c(C)c32)c1 [Trametinib]; conditions: max 1 µM
Outline: as §1

AZD2811 = compound: CCN(CCO)CCCOc1ccc2c(Nc3cc(CC(=O)Nc4cccc(F)c4)[nH]n3)ncnc2c1 [AZD2811]; conditions: max 1 µM
Outline: as §1

Venetoclax = compound: CC1(C)CCC(CN2CCN(c3ccc(C(=O)NS(=O)(=O)c4ccc(NCC5CCOCC5)c([N+](=O)[O-])c4)c(Oc4cnc5[nH]ccc5c4)c3)CC2)=C(c2ccc(Cl)cc2)C1 [Venetoclax]; conditions: max 1 µM
Outline: as §1

Selumetinib = compound: Cn1cnc2c(F)c(Nc3ccc(Br)cc3Cl)c(C(=O)NOCCO)cc21 [Selumetinib]; conditions: max 10 µM
Outline: as §1

Gefitinib = compound: COc1cc2ncnc(Nc3ccc(F)c(Cl)c3)c2cc1OCCCN1CCOCC1 [Gefitinib]; conditions: max 10 µM
Outline: as §1

AZD7648 = compound: Cc1cc2ncnn2cc1Nc1ncc2c(n1)n(C1CCOCC1)c(=O)n2C [AZD7648]; conditions: max 10 µM
Outline: as §1

AZD5153 = compound: COc1nnc2ccc(N3CCC(c4ccc(OCCN5CCN(C)C(=O)[C@H]5C)cc4)CC3)nn12 [AZD5153]; conditions: max 1 µM
Outline: as §1

AZD4320 = compound: CN(CC[C@H](CSC1=CC=CC=C1)NC2=C(C=C(C=C2)S(=O)(=O)NC(=O)C3=CC=C(C=C3)N4CCC(CC4)[C@H](C5=CC=CC=C5C6=CC=C(C=C6)Cl)O)S(=O)(=O)C(F)(F)F)CCO [AZD4320]; conditions: max 1 µM
Outline: as §1

Alisertib = compound: COc1cc(Nc2ncc3c(n2)-c2ccc(Cl)cc2C(c2c(F)cccc2OC)=NC3)ccc1C(=O)O [Alisertib]; conditions: max 10 µM
Outline: as §1

SN-38 = compound: CCc1c2c(nc3ccc(O)cc13)-c1cc3c(c(=O)n1C2)COC(=O)[C@]3(O)CC [SN-38]; conditions: max 0.3 µM
Outline: as §1

AZD6738 = compound: C[C@@H]1COCCN1C2=NC(=NC(=C2)C3(CC3)[S@](=N)(=O)C)C4=C5C=CNC5=NC=C4 [AZD6738]; conditions: max 10 µM
Outline: as §1

AZD1775 = compound: C=CCn1c(=O)c2cnc(Nc3ccc(N4CCN(C)CC4)cc3)nc2n1-c1cccc(C(C)(C)O)n1 [AZD1775]; conditions: max 3 µM
Outline: as §1

Dasatinib = compound: CC1=C(C(=CC=C1)Cl)NC(=O)C2=CN=C(S2)NC3=CC(=NC(=N3)C)N4CCN(CC4)CCO [Dasatinib]; conditions: max 2 µM
Outline: as §1

AZD1390 = compound: CC(C)n1c(=O)n(C)c2cnc3cc(F)c(-c4ccc(OCCCN5CCCCC5)nc4)cc3c21 [AZD1390]; conditions: max 0.3 µM
Outline: as §1

Olaparib = compound: O=C(c1cc(Cc2n[nH]c(=O)c3ccccc23)ccc1F)N1CCN(C(=O)C2CC2)CC1 [Olaparib]
Outline: as §1

SG3199 = compound: CC1=CN2[C@@H](C1)C=NC3=CC(=C(C=C3C2=O)OC)OCCCCCOC4=C(C=C5C(=C4)N=C[C@@H]6CC(=CN6C5=O)C)OC [SG3199]; conditions: max 0.001 µM
Outline: as §1

Doxorubicin = compound: COc1cccc2c1C(=O)c1c(O)c3c(c(O)c1C2=O)C[C@@](O)(C(=O)CO)C[C@@H]3O[C@H]1C[C@H](N)[C@H](O)[C@H](C)O1 [Doxorubicin]; conditions: max 1 µM
Outline: as §1

Row | Cell Line | IC50, cell viability 72 h (AZD0156) [nM] | IC50, cell viability 72 h (Lapatinib) [nM] | IC50, cell viability 72 h (Savolitinib) [nM] | IC50, cell viability 72 h (Crizotinib) [nM] | IC50, cell viability 72 h (Palbociclib) [nM] | IC50, cell viability 72 h (Prexasertib) [nM] | IC50, cell viability 72 h (Capivasertib; max 10 µM) [nM] | IC50, cell viability 72 h (Taselisib) [nM] | IC50, cell viability 72 h (AZD5991) [nM] | IC50, cell viability 72 h (AZD8186) [nM] | IC50, cell viability 72 h (Trametinib) [nM] | IC50, cell viability 72 h (AZD2811) [nM] | IC50, cell viability 72 h (Venetoclax) [nM] | IC50, cell viability 72 h (Selumetinib) [nM] | IC50, cell viability 72 h (Gefitinib) [nM] | IC50, cell viability 72 h (AZD7648) [nM] | IC50, cell viability 72 h (AZD5153) [nM] | IC50, cell viability 72 h (AZD4320) [nM] | IC50, cell viability 72 h (Alisertib) [nM] | IC50, cell viability 72 h (SN-38) [nM] | IC50, cell viability 72 h (AZD6738) [nM] | IC50, cell viability 72 h (AZD1775) [nM] | IC50, cell viability 72 h (Dasatinib) [nM] | IC50, cell viability 72 h (AZD1390) [nM] | IC50, cell viability 72 h (Olaparib; max 3 µM) [nM] | IC50, cell viability 72 h (SG3199) [nM] | IC50, cell viability 72 h (Doxorubicin) [nM] | IC50, cell viability 72 h (Olaparib; max 10 µM) [nM] | IC50, cell viability 72 h (Capivasertib; max 3 µM) [nM]
1 | MHH-CALL-2 (B-Lymphoblastic Leukemia) | > 3000 | > 10000 | > 1000 | 679 | > 10000 | 93.4 | > 10000 | 9370 | 150 | > 3000 | > 1000 | > 1000 | > 1000 | > 10000 | > 10000 | > 10000 | > 1000 | > 1000 | 3120 | 2.33 | 3260 | 1070 | > 2000 | > 300 | > 3000 |  |  |  | 
2 | NCI-H209 (Small Cell Lung Carcinoma) | > 3000 | > 10000 | > 1000 | > 10000 | > 10000 | 18.1 | > 10000 | > 10000 | > 1000 | > 3000 | > 1000 | 800 | 978 | > 10000 | > 10000 | > 10000 | > 1000 | 18.4 | 7740 | 0.637 | 2110 | 373 | > 2000 | > 300 |  | > 1 | 281 | 1030 | 
3 | NCI-H720 (Other Solid Carcinomas) | > 3000 |  |  |  |  | 441 |  |  |  |  |  | 652 |  |  |  | > 10000 |  |  |  | > 300 | 6580 | 1480 |  |  |  | > 1 | > 1000 | > 10000 | 812
4 | OE21 (Esophageal Squamous Cell Carcinoma) | > 3000 | 6830 | > 1000 | > 10000 | > 10000 | 43.3 | 5200 | 1030 | > 1000 | > 3000 | > 1000 | > 1000 | > 1000 | > 10000 | 3380 | > 10000 | 256 | > 1000 | > 10000 | 214 |  | 718 | 1280 | > 300 |  | > 1 | > 1000 | > 10000 | 
